According to patent US20250084078A1, “FUSED RING-SUBSTITUTED SIX-MEMBERED HETEROCYCLIC COMPOUND, AND PREPARATION METHOD THEREFOR AND USE THEREOF” (GENFLEFT THERAPEUTICS (SHANGHAI) INC., priority 2022, published 2025):

Experiments:
HPK1 [1] = target: T1, HPK1 (Homo sapiens, UniProt Q92918); assay: HPK1 kinase activity assay (ADP-Glo); conditions: HPK1 Kinase activity IC50, ADP-Glo; 1 nM HPK1, 10 μM ATP, 0.1 μg/μL MBP
T1 sequence (Q92918 1-346): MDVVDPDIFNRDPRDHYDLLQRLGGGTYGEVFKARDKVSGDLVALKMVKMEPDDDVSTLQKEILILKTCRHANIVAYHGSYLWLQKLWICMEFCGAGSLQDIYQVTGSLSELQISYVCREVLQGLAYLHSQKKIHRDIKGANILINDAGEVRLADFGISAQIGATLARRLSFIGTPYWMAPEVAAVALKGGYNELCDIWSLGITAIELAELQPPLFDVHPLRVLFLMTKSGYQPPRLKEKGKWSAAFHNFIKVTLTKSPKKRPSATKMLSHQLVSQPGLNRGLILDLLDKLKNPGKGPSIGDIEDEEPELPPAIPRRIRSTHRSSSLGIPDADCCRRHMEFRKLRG

HPK1 [2] = target: HPK1 (Homo sapiens, UniProt Q92918); assay: SLP76 phosphorylation assay (intracellular HPK1 inhibitory activity, p-SLP76 S376 ELISA in Jurkat cells); conditions: p-SLP76 IC50, Jurkat, Clone E6-1 cells; 1 h compound pre-incubation; anti-CD3 beads stimulation 20 min; Phospho-SLP-76 (Ser376) ELISA
Target sequence in this assay (Q92918 whole entry): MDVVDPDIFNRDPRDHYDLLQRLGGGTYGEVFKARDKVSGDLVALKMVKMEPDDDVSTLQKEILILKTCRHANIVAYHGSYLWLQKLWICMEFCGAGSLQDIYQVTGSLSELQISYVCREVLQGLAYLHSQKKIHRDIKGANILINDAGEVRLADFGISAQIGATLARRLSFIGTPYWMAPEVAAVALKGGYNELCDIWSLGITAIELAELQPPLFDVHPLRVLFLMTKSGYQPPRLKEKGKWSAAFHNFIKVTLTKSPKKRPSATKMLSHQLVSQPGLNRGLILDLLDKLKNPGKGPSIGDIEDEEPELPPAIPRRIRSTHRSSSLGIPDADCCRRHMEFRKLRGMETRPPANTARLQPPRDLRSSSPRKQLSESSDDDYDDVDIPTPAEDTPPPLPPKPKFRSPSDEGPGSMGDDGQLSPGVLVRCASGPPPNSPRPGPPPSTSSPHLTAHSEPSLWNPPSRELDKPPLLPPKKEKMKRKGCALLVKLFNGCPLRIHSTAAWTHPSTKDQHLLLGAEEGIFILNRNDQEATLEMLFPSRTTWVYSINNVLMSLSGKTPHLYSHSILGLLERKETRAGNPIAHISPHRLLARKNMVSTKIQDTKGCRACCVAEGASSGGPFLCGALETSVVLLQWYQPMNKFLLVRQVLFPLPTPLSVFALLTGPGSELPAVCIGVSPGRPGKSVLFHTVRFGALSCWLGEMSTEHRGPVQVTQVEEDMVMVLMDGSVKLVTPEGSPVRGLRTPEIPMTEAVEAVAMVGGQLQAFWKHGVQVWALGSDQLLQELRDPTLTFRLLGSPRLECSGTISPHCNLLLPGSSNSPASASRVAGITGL
Method: SLP76 Phosphorylation Assay
Intracellular HPK1 inhibitory activity was tested by the detection of SLP76 phosphorylation at S376.
Preparation of 1000× drug stock plate: a 1000× compound stock plate was prepared. […] The compound stock plate was sealed with a sealing film and stored in a −20° C. refrigerator for later use.
Preparation of Beads wash buffer: 0.1 mL FBS and 0.4 mL 0.5 M EDTA (with a final concentration of 2 mM) were added to 100 mL PBS and stored in a 4° C. refrigerator for later use.
100× Protease Inhibitor Cocktail in 1/20 total volume was added and stored on wet ice for later use. The buffer was ready to use.
Cell inoculation and dosing: the 1000× drug stock plate was taken and melted at room temperature in the dark. […] Jurkat cells in the logarithmic growth phase were selected and collected. […] The cells were inoculated into a 96-well plate (the volume was 90 μL per well), and a blank control well (without cells inoculation, and in which 110 μL of medium was added) was set. 10 μL of a drug-containing culture medium (10×) was transferred from the 10× drug intermediate plate into the 96-well cell plate (with a final concentration of 0.1% DMSO), and set a DMSO control group (in which 0.1% DMSO was added to the treated cells), a stimulated control group (in which 10 μL of culture medium was added to treat cells) and an unstimulated group (in which 10 μL of culture medium was added to treat cells). The wells were duplicated, gently patted, mixed, and then placed into a 5% CO2 incubator at 37° C. for 1 h.
Anti-CD3 beads stimulation: Dynabeads anti-human CD3 was taken, shaken, and mixed for 60 s. The required volume of beads was pipetted, and an equal volume or at least 1 mL of washing solution was added to wash once. Fresh complete medium was then added to resuspend and adjust the density of the beads to 4×10^7/mL, and the beads were placed on ice for later use. At the end of drug pre-incubation, the cell culture plate was taken out. 10 μL Dynabeads anti-human CD3 was added to each well to treat the cells, and 10 μL the culture medium was added to the unstimulated group. The cell culture plate was shaken to mix well at 2500 rpm for 10 s, and then placed into a 5% CO2 incubator at 37° C. and continued to culture for 20 min.
Detection of p-SLP76 protein level: PathScan Phospho-SLP-76 (Ser376) Sandwich ELISA Kit was applied to detect p-SLP76 protein level. At the end of the Anti-CD3 beads stimulation, the cell culture plate was removed from the incubator. […] After lysis, the cell culture plate was centrifuged at 4° C., 400×g for 5 min. 25 μL of sample and 75 μL of sample diluent were added to each well, and the plate was placed in a 5% CO2 incubator at 37° C. for 2 h. The subsequent detection steps were carried out following the kit instructions, and the absorbance (OD value) of each well was read at 450 nm by a microplate reader.

SMILES	IC50 (HPK1 [1]) [nM]	IC50 (HPK1 [2]) [nM]
Cc1c[nH]c2ncc(-c3cc4c(c([C@@H]5COCCN5)c3)CN(C(=O)N3C[C@H]5C[C@@H]3CO5)CC4)nc12 [Compound Z607, ((1R,4R)-2-oxa-5-azabicyclo[2.2.1]heptan-5-yl)(6-(7-methyl-5H-pyrrolo[2,3-b]pyrazin-2-yl)-8-((R)-morpholin-3-yl)-3,4-dihydroisoquinolin-2(1H)-yl)methanone]	0.27	76.1
Cc1c[nH]c2ncc(-c3cc4c(c([C@@H]5CCCN5)c3)CN(C(=O)N3CCOC(C(F)(F)F)C3)CC4)cc12 (single isomer, unassigned) [Compound Z491]	1.29	308
CC(C)(O)C(=O)N1CCc2cc(-c3cnc4[nH]cc(C5CC5)c4c3)cc([C@@H]3COCCN3)c2C1 [Compound Z523, (R)-1-(6-(3-cyclopropyl-1H-pyrrolo[2,3-b]pyridin-5-yl)-8-(morpholin-3-yl)-3,4-dihydroisoquinolin-2(1H)-yl)-2-hydroxy-2-methylpropan-1-one]	0.17	51.8
O=C(N1CCc2cc(-c3cnc4[nH]cc(C(F)(F)F)c4c3)cc([C@@H]3COCCN3)c2C1)N1C2CCC1COC2 [Compound Z611]	0.37	98.9
O=C(N1CCc2cc(-c3cnc4[nH]cc(Cl)c4n3)cc([C@@H]3COCCN3)c2C1)N1CC2CCC(C1)O2 [Compound Z549, (8-oxa-3-azabicyclo[3.2.1]octan-3-yl)(6-(7-chloro-5H-pyrrolo[2,3-b]pyrazin-2-yl)-8-((R)-morpholin-3-yl)-3,4-dihydroisoquinolin-2(1H)-yl)methanone]	0.11	66.3
Cc1c[nH]c2ncc(-c3cc4c(c([C@@H]5COCCN5)c3)CN(C(=O)N3CCOC[C@@H]3C)CC4)nc12 [Compound Z574, (6-(7-methyl-5H-pyrrolo[2,3-b]pyrazin-2-yl)-8-((R)-morpholin-3-yl)-3,4-dihydroisoquinolin-2(1H)-yl)((S)-3-methylmorpholine)methanone]	0.41	83.9
Cc1c[nH]c2ncc(-c3cc4c(c([C@@H]5CCCN5)c3)CN(C(=O)C(C)(C)C)CC4)cc12 [Compound Z126]	0.78	252
Cc1c[nH]c2ncc(-c3cc4c(c([C@@H]5COCCN5)c3)CN(C(=O)N3CC5CCC(C3)O5)CC4)nc12 [Compound Z572, (8-oxa-3-50 azabicyclo[3.2.1]octan-3-yl)(6-(7-methyl-5H-pyrrolo[2,3-b]pyrazin-2-yl)-8-((R)-morpholin-3-yl)-3,4-dihydroisoquinolin-2(1H)-yl)methanone]	0.16	28
O=C(N1CCc2cc(-c3cnc4[nH]cc(Cl)c4c3)cc([C@@H]3COCCN3)c2C1)N1C[C@H]2C[C@@H]1CO2 [Compound Z608, ((1R,4R)-2-oxa-5-azabicyclo[2.2.1]heptan-5-yl)(6-(3-chloro-1H-pyrrolo[2,3-b]pyridin-5-yl)-8-((R)-morpholin-3-yl)-3,4-dihydroisoquinolin-2(1H)-yl)methanone]	0.27	67.1
Cc1c[nH]c2ncc(-c3cc4c(c([C@@H]5CCCN5)c3)CN(C(=O)C(C)O)C4)cc12 (mixture of isomers) [Compound Z382, rac-2-hydroxy-1-(6-(3-methyl-1H-pyrrolo[2,3-b]pyridin-5-yl)-4-((R)-pyrrolidin-2-yl)isoindolin-2-yl)propan-1-one]	1.35	474
CCc1c(Cl)[nH]c2ncc(-c3cc4c(c([C@@H]5CCCN5)c3)CN(C(=O)COC)CC4)cc12 [Compound Z411]	1.12	428
O=C(N1CCc2cc(-c3cnc4[nH]cc(Cl)c4c3)cc([C@@H]3COCCN3)c2C1)N1CC2CCC(C1)O2 [Compound Z447, (8-oxa-3-azabicyclo[3.2.1]octan-3-yl)(6-(3-chloro-1H-pyrrolo[2,3-b]pyridin-5-yl)-8-((R)-morpholin-3-yl)-3,4-dihydroisoquinolin-2(1H)-yl)methanone]	0.18	44.8
O=C(N1CCc2cc(-c3cnc4[nH]cc(Cl)c4n3)cc([C@@H]3COCCN3)c2C1)N1C[C@@H]2CC[C@H]1CO2 (single isomer, unassigned) [Compound Z590]	0.24	61.7
Cc1c[nH]c2ncc(-c3cc4c(c([C@@H]5COCCN5)c3)CCN(C(=O)C3CCOCC3)C4)cc12 [Compound Z377, (R)-(7-(3-methyl-1H-pyrrolo[2,3-b]pyridin-5-yl)-5-(morpholin-3-yl)-3,4-dihydroisoquinolin-2(1H)-yl)(tetrahydro-2H-pyran-4-yl)methanone]	0.28	190
CC(C)c1c[nH]c2ncc(-c3cc4c(c([C@@H]5CCCN5)c3)CN(C(=O)C(C)(C)O)CC4)cc12 [Compound Z416, (S)-2-hydroxy-1-(6-(3-isopropyl-1H-pyrrolo[2,3-b]pyridin-5-yl)-8-(pyrrolidin-2-yl)-3,4-dihydroisoquinolin-2(1H)-yl)-2-methylpropan-1-one]	0.29	63.1
O=C(N1CCc2cc(-c3cnc4[nH]cc(Cl)c4c3)cc([C@@H]3COCCN3)c2C1)N1C2CCC1COC2 [Compound Z489, (3-oxa-8-azabicyclo[3.2.1]octan-8-yl)(6-(3-chloro-1H-pyrrolo[2,3-b]pyridin-5-yl)-8-((R)-morpholin-3-yl)-3,4-dihydroisoquinolin-2(1H)-yl)methanone]	0.21	82.1
CC(C)c1c[nH]c2ncc(-c3cc4c(c([C@@H]5COCCN5)c3)CN(C(=O)C(C)(C)O)CC4)nc12 [Compound Z541, (R)-2-hydroxy-1-(6-(7-isopropyl-5H-pyrrolo[2,3-b]pyrazin-2-yl)-8-(morpholin-3-yl)-3,4-dihydroisoquinolin-2(1H)-yl)-2-methylpropan-1-one]	0.16	33.7

Further lines, results first:

IC50 (HPK1 [1]) [nM]	IC50 (HPK1 [2]) [nM]	SMILES
0.21	67.4	Cc1c[nH]c2ncc(-c3cc4c(c([C@@H]5COCCN5)c3)CN(C(=O)N3CC[C@H](F)C3)CC4)nc12 [Compound Z603, ((S)-3-fluoropyrrolidin-1-yl)(6-(7-methyl-5H-pyrrolo[2,3-b]pyrazin-2-yl)-8-((R)-morpholin-3-yl)-3,4-dihydroisoquinolin-2(1H)-yl)methanone]
0.59	258	Cc1c[nH]c2ncc(-c3cc4c(c([C@@H]5COCCN5)c3)CN(C(=O)C3CCOCC3)CC4)cc12 [Compound Z375]
0.22	105	Cc1c[nH]c2ncc(-c3cc4c(c([C@@H]5COCCN5)c3)CN(C(=O)N3C[C@@H](C)O[C@H](C)C3)CC4)cc12 [Compound Z552, ((2R,6R)-2,6-dimethylmorpholine)(6-(3-methyl-1H-pyrrolo[2,3-b]pyridin-5-yl)-8-((R)-morpholin-3-yl)-3,4-dihydroisoquinolin-2(1H)-yl)methanone]
0.21	150	Cc1c[nH]c2ncc(-c3cc4c(c([C@@H]5COCCN5)c3)CN(C(=O)N3CC[C@H](F)C3)CC4)cc12 [Compound Z488, ((S)-3-fluoropyrrolidin-1-yl)(6-(3-methyl-1H-pyrrolo[2,3-b]pyridin-5-yl)-8-((R)-morpholin-3-yl)-3,4-dihydroisoquinolin-2(1H)-yl)methanone]
0.24	86.7	Cc1c[nH]c2ncc(-c3cc4c(c([C@@H]5COCCN5)c3)CN(C(=O)N3CCOC[C@@H]3C)CC4)cc12 [Compound Z581, (6-(3-methyl-1H-pyrrolo[2,3-b]pyridin-5-yl)-8-((R)-morpholin-3-yl)-3,4-dihydroisoquinolin-2(1H)-yl)((S)-3-methylmorpholino)methanone]
0.36	108	O=C(N1CCc2cc(-c3cnc4[nH]cc(Cl)c4c3)cc([C@@H]3COCCN3)c2C1)N1CC[C@H](F)C1 [Compound Z604, (6-(3-chloro-1H-pyrrolo[2,3-b]pyridin-5-yl)-8-((R)-morpholin-3-yl)-3,4-dihydroisoquinolin-2(1H)-yl)((S)-3-fluoropyrrolidin-1-yl)methanone]
0.14	60.9	Cc1c[nH]c2ncc(-c3cc4c(c([C@@H]5COCCN5)c3)CN(C(=O)N3CC5CCC3CO5)CC4)cc12 (stereo partly drawn) [Compound Z457, (2-oxa-5-azabicyclo[2.2.2]octan-5-yl)(6-(3-methyl-1H-pyrrolo[2,3-b]pyridin-5-yl)-8-((R)-morpholin-3-yl)-3,4-dihydroisoquinolin-2(1H)-yl)methanone]
0.4	186	Cc1c[nH]c2ncc(-c3cc4c(c([C@@H]5CCCN5)c3)CN(C(=O)N3CCOC(C(F)(F)F)C3)CC4)cc12 (stereo partly drawn) [Compound Z497, [6-(3-methyl-1H-pyrrolo[2,3-b]pyridin-5-yl)-8-[(S)-pyrrolidin-2-yl]-3,4-dihydro-isoquinolin-2(1H)-yl]-[2-(trifluoromethyl)morpholin-4-yl]methanone]
0.25	83.2	Cc1c[nH]c2ncc(-c3cc4c(c([C@@H]5COCCN5)c3)CN(C(=O)N3CCC(F)CC3)CC4)cc12 [Compound Z585, (R)-(4-fluoropiperidin-1-yl)(6-(3-methyl-1H-pyrrolo[2,3-b]pyridin-5-yl)-8-(morpholin-3-yl)-3,4-dihydroisoquinolin-2(1H)-yl)methanone]
